In US5792851A, “Human prostaglandin transporter” (Albert Einstin College of Medicine of Yeshiva University, a …, priority 1996, dated 1998):

Key:
[1] = target: T1, human prostaglandin transporter (hPGT) (Homo sapiens, UniProt Q92959); test: Timed uptake of tracer 3[H]-prostaglandins into HeLa cells expressing clone 3 (hPGT); assay type: cell-based; conditions: for 2-minute rank-order of uptakes: 2 minutes, 27° C., tracer 0.6-1.0 nM; for difference between transport rates: 10 and 20 minutes
[2] = tested on: rat PGT; conditions: reference 36; cited from earlier work
[3] = target: T1, human prostaglandin transporter (hPGT); test: Inhibition of hPGT-mediated tracer PGE2 uptake in transfected HeLa cells; assay type: cell-based
[4] = tested on: rat PGT; test: Tracer prostaglandin transport by rat PGT re-expressed in HeLa cells; assay type: cell-based; conditions: data not shown
[5] = HeLa, 10 min, read-out: percent of the control 10-min tracer PGE2 uptake

SMILES	2-minute rank-order of uptakes [1]	remaining activity at 10 µM [3, 5]	remaining activity at 100 µM [3, 5]	difference between transport rates [1]	remaining activity at 0.1 µM [3, 5]	further results
CCCCC[C@H](O)/C=C/[C@H]1OC(O)C[C@H](O)[C@@H]1C/C=C\CCCC(=O)O (stereo partly shown) [TxB2]	PGE2 >PGE1>PGF2α >PGD2 >TxB2					transport rate relative to PGE2 or PGF2α ([1]; hPGT, FIG. 2): about half that of PGE2 or PGF2α; transport rate relative to PGE2 or PGF2α [2]: about half that of PGE2 or PGF2α; remaining activity at 0.5 µM [3, 5]: 26.7 ± 0.1%
COc1ccc2c(c1)c(CC(=O)O)c(C)n2C(=O)c1ccc(Cl)cc1 [Indomethacin]		114 ± 3.8%	82.5 ± 1%			potency as inhibitor of hPGT (in words) [3]: much less effective
CCCCC[C@H](O)/C=C/[C@H]1C(=O)C[C@H](O)[C@@H]1C/C=C\CCCC(=O)O [PGD2]	PGE2 >PGE1>PGF2α >PGD2 >TxB2			essentially no difference	47.9 ± 0.9%	transport rate of tracer relative to PGE2 [4]: at a rate equivalent to that of PGE2
CCCCC[C@H](O)/C=C/[C@H]1[C@H](O)CC(=O)[C@@H]1CCCCCCC(=O)O [PGE1]	PGE2 >PGE1>PGF2α >PGD2 >TxB2			essentially no difference	50.8 ± 3.4%	
CCCN(CCC)S(=O)(=O)c1ccc(C(=O)O)cc1 [Probenecid]		104 ± 5.2%	92.8 ± 2%			potency as inhibitor of hPGT (in words) [3]: much less effective
CCCCC[C@H](O)/C=C/[C@@H]1[C@@H](C/C=C\CCCC(=O)O)[C@@H](O)C[C@H]1O [PGF2α]	PGE2 >PGE1>PGF2α >PGD2 >TxB2			essentially no difference	45 ± 1.3%	
NS(=O)(=O)c1cc(C(=O)O)c(NCc2ccco2)cc1Cl [Furosemide]		91.5 ± 3.3%	63.3 ± 1.7%			
CCCCC[C@H](O)/C=C/[C@H]1[C@H](O)CC(=O)[C@@H]1C/C=C\CCCC(=O)O [PGE2]	PGE2 >PGE1>PGF2α >PGD2 >TxB2			essentially no difference		
CC#CCC(C)[C@H](O)/C=C/[C@@H]1[C@H]2C/C(=C/CCCC(=O)O)C[C@H]2C[C@H]1O (stereo partly shown) [iloprost]						transport above baseline ([1]; 3[H]-iloprost 7.9 nM, data not shown): not transported above baseline
